These results are taken from the Biogen ADME set (Fang et al. 2023).

≈ marks a conversion by molar mass, not a printed value. A value given as a limit tells only on which side of the number the result lay.

For this series the following is noted: for aqueous solubility: pH 6.8.

Take `CN(Cc1ccccc1)C1(C(=O)N2CCNC(=O)CC2)Cc2ccccc2C1`: the MDR1-MDCK efflux ratio was 8.66; the fraction unbound, human plasma worked out at 0.0803; the fraction unbound, rat plasma was found to be 0.0818; the intrinsic clearance, human liver microsomes worked out at 113 mL/min/kg. Besides, the intrinsic clearance, rat liver microsomes came to 2760 mL/min/kg.
Turning to `Cn1ccnc1CCNC(=O)c1cccc2cccnc12`, the MDR1-MDCK efflux ratio stood at 7.87; the intrinsic clearance, human liver microsomes worked out at 11.5 mL/min/kg; the intrinsic clearance, rat liver microsomes stood at 150 mL/min/kg; the aqueous solubility stood at 41.5 µg/mL (≈ 148 µM).
In the case of `N#CCNC(=O)c1ccc(C#N)c(Cl)c1`, the intrinsic clearance, human liver microsomes is ≤ 4.74 mL/min/kg and the intrinsic clearance, rat liver microsomes was ≤ 10.7 mL/min/kg.
Consider `O=C(c1ccc(Cl)cc1)N1CCC[C@@H](C(=O)N2CCc3ccccc3C2)C1`, for which the MDR1-MDCK efflux ratio is 2.44; the intrinsic clearance, human liver microsomes amounted to 360 mL/min/kg; the intrinsic clearance, rat liver microsomes was found to be 2530 mL/min/kg.
In the case of `COc1cccc(NC(=O)C2CNC2)c1`, the intrinsic clearance, human liver microsomes is ≤ 4.74 mL/min/kg; the intrinsic clearance, rat liver microsomes came to 59.4 mL/min/kg; the aqueous solubility was 29.5 µg/mL (≈ 143 µM).
As for `CCCS(=O)(=O)N1CCCC(C(=O)N2CCc3ccccc3C2)C1` (stereo not given), the MDR1-MDCK efflux ratio was 1.87; the intrinsic clearance, human liver microsomes amounted to 62 mL/min/kg; the intrinsic clearance, rat liver microsomes is 1010 mL/min/kg; the aqueous solubility was found to be 54.8 µg/mL (≈ 156 µM).
For the compound `O=C(CSC1CCCC1)N1CCC(Cn2cccn2)CC1`, the MDR1-MDCK efflux ratio worked out at 1.6; the intrinsic clearance, human liver microsomes was determined as 74.6 mL/min/kg; the intrinsic clearance, rat liver microsomes came to 747 mL/min/kg; the aqueous solubility turned out to be 63.3 µg/mL (≈ 206 µM).
Compound `Cc1cc2c(C(N)=O)cccc2n1-c1nc2c(c(NCc3ccccc3)n1)COCC2` displayed an aqueous solubility of 36.4 µg/mL (≈ 88 µM).
For `Cc1c[nH]c(CNCc2ccccc2CC(C)C)n1`, the MDR1-MDCK efflux ratio was 3.79; the intrinsic clearance, human liver microsomes was determined as 35.6 mL/min/kg; the intrinsic clearance, rat liver microsomes stood at 2700 mL/min/kg.
Regarding `CC1CN(C(=O)c2cccnc2N2CCOCC2)CC(c2ccccc2)O1` (stereo not given), the MDR1-MDCK efflux ratio was 5.22; the fraction unbound, human plasma was 0.374; the fraction unbound, rat plasma was 0.359; the intrinsic clearance, human liver microsomes came to 35.9 mL/min/kg. This compound also yielded an intrinsic clearance, rat liver microsomes of 554 mL/min/kg.
Consider `Cc1cc(C)c2c(c1)CCCN2C(=O)c1ccc(-c2nnc(C)o2)cc1`, for which the MDR1-MDCK efflux ratio was found to be 0.685; the intrinsic clearance, human liver microsomes was 149 mL/min/kg; the intrinsic clearance, rat liver microsomes was found to be 2090 mL/min/kg; the aqueous solubility is 52.2 µg/mL (≈ 150 µM).
With `CCn1c(SC)nnc1C1CCN(C)CC1`, the MDR1-MDCK efflux ratio worked out at 7.45; the intrinsic clearance, human liver microsomes was ≤ 4.74 mL/min/kg; the intrinsic clearance, rat liver microsomes is ≤ 10.7 mL/min/kg; the aqueous solubility is 41.2 µg/mL (≈ 171 µM).
As for `Cc1cccc2cc(C(=O)NCCSc3nccn3C)n(C)c12`, the intrinsic clearance, human liver microsomes turned out to be 180 mL/min/kg; the intrinsic clearance, rat liver microsomes came to 727 mL/min/kg; the aqueous solubility came out at 33.5 µg/mL (≈ 102 µM).
Take `Cc1ccc(-c2ccc(N(C)CCO)nn2)c(-n2cccn2)c1`: the MDR1-MDCK efflux ratio amounted to 29.3; the intrinsic clearance, human liver microsomes was ≤ 4.74 mL/min/kg; the intrinsic clearance, rat liver microsomes amounted to 79.8 mL/min/kg.
For `CC(C)(C)OC(=O)N1CCNC(=O)C1`, the aqueous solubility was 34.3 µg/mL (≈ 171 µM).
`CC(=O)N1CCN(c2c(Cl)cccc2NC(=O)COc2ccccc2Cl)CC1` displayed a fraction unbound, human plasma of 0.0181; an intrinsic clearance, human liver microsomes of 430 mL/min/kg; an intrinsic clearance, rat liver microsomes of 3580 mL/min/kg; an aqueous solubility of 19.5 µg/mL (≈ 46.2 µM).
With `Cn1c(CNc2ccc(C(=N)N)cc2)nc2cc(C(=O)N(CCC(=O)O)c3ccccn3)ccc21`, the MDR1-MDCK efflux ratio was 0.503; the intrinsic clearance, human liver microsomes was ≤ 4.74 mL/min/kg; the intrinsic clearance, rat liver microsomes is ≤ 10.7 mL/min/kg; the aqueous solubility was determined as 4.91 µg/mL (≈ 10.4 µM).
On to `COc1ccc2cc(-c3[nH]c(-c4ccc(S(C)=O)cc4)nc3-c3ccncc3)ccc2c1` (stereo not given), for which the MDR1-MDCK efflux ratio is 34.8; the intrinsic clearance, human liver microsomes was 4.96 mL/min/kg; the intrinsic clearance, rat liver microsomes worked out at 121 mL/min/kg; the aqueous solubility is 3.4 µg/mL (≈ 7.74 µM).
`Cc1cc(CN(C)C(=O)C(=O)Nc2ccc(F)c(C)c2)no1`: the intrinsic clearance, human liver microsomes is 13.7 mL/min/kg and the intrinsic clearance, rat liver microsomes is 270 mL/min/kg.
In the case of `Cc1cc(Cl)c(OCCCN2CCNCC2)c(Br)c1`, the intrinsic clearance, human liver microsomes is ≤ 4.74 mL/min/kg; the intrinsic clearance, rat liver microsomes stood at 461 mL/min/kg; the aqueous solubility was 36.9 µg/mL (≈ 106 µM).
`Cc1ccccc1OCCn1c(N)nc2ccccc21`: the MDR1-MDCK efflux ratio stood at 1.52; the intrinsic clearance, human liver microsomes worked out at 19.1 mL/min/kg; the intrinsic clearance, rat liver microsomes is 1760 mL/min/kg; the aqueous solubility came to 40.6 µg/mL (≈ 152 µM).
The compound `O=C(C1CCCN(c2ccccn2)C1)N1CCc2ccccc2C1` (stereo not given) displayed an intrinsic clearance, human liver microsomes of 172 mL/min/kg; an intrinsic clearance, rat liver microsomes of 1520 mL/min/kg; an aqueous solubility of 49.2 µg/mL (≈ 153 µM).
As for `Fc1cccc(N[C@H]2CCCN[C@H]2Cc2ccccc2)c1`, the intrinsic clearance, human liver microsomes turned out to be 61 mL/min/kg; the intrinsic clearance, rat liver microsomes turned out to be 658 mL/min/kg; the aqueous solubility was 42.6 µg/mL (≈ 150 µM).
Turning to `CCc1c(C)nn(CCNC(=O)CCc2cnccn2)c1C`, the MDR1-MDCK efflux ratio turned out to be 23.4; the intrinsic clearance, human liver microsomes is 64.5 mL/min/kg; the intrinsic clearance, rat liver microsomes is 647 mL/min/kg.
Turning to `c1cnc(N2CC(c3nc4ccccc4[nH]3)C2)nc1`, the MDR1-MDCK efflux ratio was 3.96; the intrinsic clearance, human liver microsomes worked out at 10.1 mL/min/kg; the intrinsic clearance, rat liver microsomes came to 33.5 mL/min/kg; the aqueous solubility came out at 35 µg/mL (≈ 139 µM).
Consider `Cc1nccc(C2CCN(Cc3ncc[nH]3)CC2)n1`, for which the MDR1-MDCK efflux ratio turned out to be 25.7; the intrinsic clearance, human liver microsomes is ≤ 4.74 mL/min/kg; the intrinsic clearance, rat liver microsomes came to 28.9 mL/min/kg; the aqueous solubility was 80.4 µg/mL (≈ 313 µM).
Regarding `Cc1noc2ncnc(N3CCCN(C(=O)C4CC4)CC3)c12`, the MDR1-MDCK efflux ratio turned out to be 21.2; the intrinsic clearance, human liver microsomes was determined as 6.43 mL/min/kg; the intrinsic clearance, rat liver microsomes came to 149 mL/min/kg.
In the case of `CN(C)S(=O)(=O)N1CCC(c2ccc3c(NCc4ccccc4F)n[nH]c3n2)CC1`, the MDR1-MDCK efflux ratio is 3.07 and the aqueous solubility is 0.15 µg/mL (≈ 0.347 µM).
`COc1ccc(OC)c(-c2cc(C(=O)N3CCCN(C(C)=O)CC3)no2)c1`: the MDR1-MDCK efflux ratio was 4.72; the intrinsic clearance, human liver microsomes was found to be 12.9 mL/min/kg; the intrinsic clearance, rat liver microsomes is 214 mL/min/kg; the aqueous solubility turned out to be 59.7 µg/mL (≈ 160 µM).
Regarding `Nc1ncnc2c1ncn2[C@@H]1O[C@H](CO)[C@@H](O)[C@@H]1O`, the aqueous solubility stood at 54.7 µg/mL (≈ 205 µM).
As for `CCn1ccc2cc(C(=O)N3CCN(c4ccc(C)cc4)C(=O)C3)ccc21`, the MDR1-MDCK efflux ratio came to 2.47; the intrinsic clearance, human liver microsomes turned out to be 12 mL/min/kg; the intrinsic clearance, rat liver microsomes was 260 mL/min/kg; the aqueous solubility was 45.7 µg/mL (≈ 127 µM).
Consider `COc1cc(C=C2C(=O)NN(c3ccccc3)C2=O)ccc1OCC(N)=O`, for which the intrinsic clearance, human liver microsomes is 158 mL/min/kg; the intrinsic clearance, rat liver microsomes stood at 277 mL/min/kg; the aqueous solubility turned out to be 29.7 µg/mL (≈ 80.7 µM).
With `CC(C)c1nc(S(=O)(=O)N2CC3(CC3)c3ccccc32)c[nH]1`, the MDR1-MDCK efflux ratio is 8.26; the intrinsic clearance, human liver microsomes worked out at 789 mL/min/kg; the intrinsic clearance, rat liver microsomes is 3110 mL/min/kg.
Regarding `COc1cccc(CN2CCC(Cc3ccc(-c4cccnc4)cc3)(C(N)=O)CC2)c1`, the MDR1-MDCK efflux ratio amounted to 7.02; the intrinsic clearance, human liver microsomes worked out at 108 mL/min/kg; the intrinsic clearance, rat liver microsomes is 631 mL/min/kg; the aqueous solubility amounted to 70.6 µg/mL (≈ 170 µM).
Consider `CNC(=O)c1ccc(N2CCCC2)nc1`, for which the MDR1-MDCK efflux ratio turned out to be 0.58; the intrinsic clearance, human liver microsomes turned out to be 44.7 mL/min/kg; the intrinsic clearance, rat liver microsomes amounted to 58.1 mL/min/kg; the aqueous solubility was determined as 34.7 µg/mL (≈ 169 µM).
On to `Cc1cc(C(=O)N2CCN(C(=O)C3CCC3)CC2)c(O)cn1`, for which the MDR1-MDCK efflux ratio is 29.1; the intrinsic clearance, human liver microsomes was ≤ 4.74 mL/min/kg; the intrinsic clearance, rat liver microsomes is ≤ 10.7 mL/min/kg.
In turn, `CC1(C)CC(Oc2ccc(-c3ccc(-c4cn[nH]c4)cc3O)nn2)CC(C)(C)N1` showed an aqueous solubility of 12.9 µg/mL (≈ 32.8 µM).
With `CC(C)OCCS(=O)(=O)N1CCc2ccccc2CC1`, the MDR1-MDCK efflux ratio stood at 0.666; the intrinsic clearance, human liver microsomes was found to be 134 mL/min/kg; the intrinsic clearance, rat liver microsomes is 3140 mL/min/kg.
Consider `CC1CCN(C(=O)CCn2ccc3ccncc32)CC1`, for which the MDR1-MDCK efflux ratio stood at 1.98; the intrinsic clearance, human liver microsomes was determined as 119 mL/min/kg; the intrinsic clearance, rat liver microsomes is 1960 mL/min/kg.
Regarding `O=C(c1ccc(-c2ccncc2)cc1)N1CCC(F)(F)CC1`, the intrinsic clearance, human liver microsomes was ≤ 4.74 mL/min/kg and the intrinsic clearance, rat liver microsomes was found to be 43.2 mL/min/kg.
`O=C(NCC1(Sc2ccccc2)CC1)c1ccc(=O)[nH]n1` came in with an intrinsic clearance, human liver microsomes of 7.88 mL/min/kg and an intrinsic clearance, rat liver microsomes of 567 mL/min/kg.
As to `c1ccc(NCc2ccc3c(c2)OCCCO3)nc1`, the MDR1-MDCK efflux ratio turned out to be 0.701; the intrinsic clearance, human liver microsomes amounted to 66.5 mL/min/kg; the intrinsic clearance, rat liver microsomes is 7100 mL/min/kg.
The compound `CCCS(=O)(=O)Nc1ccc(F)c(C(=O)c2c[nH]c3ncc(Cl)cc23)c1F` gave an intrinsic clearance, human liver microsomes of 7.61 mL/min/kg and an intrinsic clearance, rat liver microsomes of 22.2 mL/min/kg.
In the case of `O=C(O)CCC(=O)Nc1ccccc1-c1nc2ccccc2[nH]c1=O`, the MDR1-MDCK efflux ratio was found to be 0.345; the intrinsic clearance, human liver microsomes was ≤ 4.74 mL/min/kg; the intrinsic clearance, rat liver microsomes was ≤ 10.7 mL/min/kg; the aqueous solubility is 60.7 µg/mL (≈ 180 µM).
In the same order, the values of `CCC(=O)NCc1cc(C2CC2)n(C2CCCC2)n1` are 1.05, 10.1 mL/min/kg, 218 mL/min/kg and 25 µg/mL (≈ 95.7 µM).
For the compound `C1CCN(c2nc(NC3CC3)nc(N3CCCCC3)n2)CC1`, the MDR1-MDCK efflux ratio amounted to 0.301 and the aqueous solubility came to 0.62 µg/mL (≈ 2.05 µM).
As to `CCCN1CCCN(c2ncccc2C#N)CC1`, the MDR1-MDCK efflux ratio was found to be 0.42; the intrinsic clearance, human liver microsomes stood at 29.4 mL/min/kg; the intrinsic clearance, rat liver microsomes was 1680 mL/min/kg; the aqueous solubility came to 27.9 µg/mL (≈ 114 µM).
For `Cc1nc2ccccc2n1CCNc1ncccn1`, the intrinsic clearance, human liver microsomes is ≤ 4.74 mL/min/kg and the intrinsic clearance, rat liver microsomes came to 299 mL/min/kg.
